Target: T1, ROMK (Kir1.1) (Homo sapiens, UniProt P48048)
T1 sequence (P48048 1-391): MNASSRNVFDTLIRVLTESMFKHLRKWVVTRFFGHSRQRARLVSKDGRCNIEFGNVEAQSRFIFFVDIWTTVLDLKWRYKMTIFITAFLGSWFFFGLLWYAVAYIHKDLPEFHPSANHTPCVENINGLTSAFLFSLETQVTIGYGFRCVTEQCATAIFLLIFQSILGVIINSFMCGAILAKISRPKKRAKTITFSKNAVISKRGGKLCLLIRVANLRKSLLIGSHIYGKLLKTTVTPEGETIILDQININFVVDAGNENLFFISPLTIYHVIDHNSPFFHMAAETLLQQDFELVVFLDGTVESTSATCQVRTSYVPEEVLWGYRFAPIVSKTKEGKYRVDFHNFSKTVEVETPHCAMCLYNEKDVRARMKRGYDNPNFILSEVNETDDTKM
Assay: 86Rb+ Efflux Assay, described in WO2013/062892 at pages 79-80
Format: cell-based
Conditions: values marked "(Rb)" in Table 10
Description: The data for Examples 2, 3, 4, 8, 9, 10, 15 and 32 were obtained using the ^86Rb^+ Efflux Assay, described in WO2013/062892 at pages 79-80.

| SMILES | IC50 [nM] |
| --- | --- |
| Cc1c(CCN2CCc3c(cnn3-c3ccc(-n4cnnn4)cc3)C2)ccc2c1COC2=O [Example 8, 4-methyl-5-(2-{1-[4-(1H-tetrazol-1-yl)phenyl]-1,4,6,7-tetrahydro-5H-pyrazolo[4,3-c]pyridin-5-yl}ethyl)-2-benzofuran-1(3H)-one] | 380 |
| Cc1c(CCN2CCc3nc(-c4ccc5c(c4)COC5=O)ncc3C2)ccc2c1COC2=O [Example 9, 4-methyl-5-{2-[2-(1-oxo-1,3-dihydro-2-benzofuran-5-yl)-7,8-dihydropyrido[4,3-d]pyrimidin-6(5H)-yl]ethyl}-2-benzofuran-1(3H)-one] | 96.1 |
| Cc1c(CCN2CCc3c(cnn3-c3ccc4c(c3)COC4=O)C2)ccc2c1COC2=O [Example 10, 4-methyl-5-{2-[1-(1-oxo-1,3-dihydro-2-benzofuran-5-yl)-1,4,6,7-tetrahydro-5H-pyrazolo[4,3-c]pyridin-5-yl]ethyl}-2-benzofuran-1(3H)-one] | 66 |
| COc1cc(-c2cn3c(n2)CN(CCc2ccc4c(c2C)COC4=O)CC3)ccc1C#N [Example 15, 2-methoxy-4-{7-[2-(4-methyl-1-oxo-1,3-dihydro-2-benzofuran-5-yl)ethyl]-5,6,7,8-tetrahydroimidazo[1,2-a]pyrazin-2-yl}benzonitrile] | 197 |
| Cc1c(C(O)CN2CCc3nc(-c4ccc5c(c4)COC5=O)ncc3C2)ccc2c1COC2=O (centres unmarked) [Example 32, 5-{1-hydroxy-2-[2-(1-oxo-1,3-dihydro-2-benzofuran-5-yl)-7,8-dihydropyrido[4,3-d]pyrimidin-6(5H)-yl]ethyl}-4-methyl-2-benzofuran-1(3H)-one] | 69.9 |

Reference: patent US10000484B2, “Inhibitors of the renal outer medullary potassim channel” (MERCK SHARP & DOHME CORP., priority 2013, dated 2018)
